These results are taken from US20250144067A1, “PERSONALIZED STARVATION THERAPY FOR CANCER” (Faeth Therapeutics, Inc., priority 2021, published 2025).

Structures can show the parent of a compound that is named as a salt.

Assay [1] deals with NCI-H292 lung cancer cells. In words: FDA drug screening, complete media vs cholesterol-free media with simvastatin (TABLE 2). It is filed as cell-based, human. The conditions noted are these: for Cholesterol-free media + simvastatin (0.04 μM) / Complete Media: NCI-H292 cells, FDA drug library screen; for Cholesterol-free media + simvastatin (0.04 μM): cholesterol-free media with simvastatin 0.04 μM; for Difference: complete media minus cholesterol-free media + simvastatin, >0 enhanced anti-cancer activity, about 0 neutral, <0 antagonist.

For assay [2], the system named is NCI-H292 lung cancer cells. Nature of the assay: FDA drug screening, complete media vs cholesterol-free media without statin (TABLE 1). Format: cell-based, human. The conditions noted are these: for Difference: about 0 neutral.
In another assay the test system is PC9 cells. In words: Drug validation, four media conditions. It is filed as cell-based, human. The note with it: cholesterol-free medium+simvastatin compared to the other media conditions. As to the method: (§1) A series of experiments were designed to assess the effect of cholesterol depletion and statin treatment on the anti-cancer effect of drugs identified in the FDA drug screens. Cancer cells were grown in media containing cholesterol and cholesterol-free media in the presence or absence of simvastatin. The effect of the drug identified in the FDA drug screens on cancer cell growth was measured.
(§2) […]. Medium 1 was ‘complete medium’ containing all essential nutrients, including cholesterol. Medium 2 was cholesterol-free medium. Medium 3 was cholesterol-free medium supplemented with simvastatin 40 nM. Medium 4 was ‘complete medium’ containing all essential nutrients, including cholesterol, supplemented with simvastatin at the IC30 concentration for each cell line.
(§3) On Day 5, cell growth was measured by absorbance or fluorescence. For absorbance growth measurements, spent media was discarded, and wells were stained with a crystal violet staining solution, washed, and dried. 100 μL of 10% acetic acid was added to each well to release the crystal violet taken up by the cells. Plates were read using a Biotek Powerwave plate reader to determine the absorbance of the crystal violet released as an indicator of cell growth at a wavelength of 595 nm. For fluorescence growth measurements, 100 μL of a resazurin solution was added to each well and the plate incubated at 37° C. for four hours. Plates were read using a Biotek Powerwave plate reader to determine the fluorescence of reosurfin as an indicator of cell growth at a wavelength of 590 nm.
(§4) Growth curves showing absorbance of crystal violet at 595 nm or fluorescene of reosurfin at 590 nm were plotted from test wells against the logarithmic concentration of the validation drug. FIG. 9A-9C show growth of cancer cell lines in the four media conditions subjected to increasing doses of neticonazole. FIG. 10A-10D show growth of cancer cell lines in the four media conditions subjected to increasing doses of cepharanthine. FIG. 11A-11B show growth of cancer cell lines in the four media conditions subjected to increasing doses of alverine citrate. FIG. 12A-12B show growth of cancer cell lines in the four media conditions subjected to increasing doses of berbamine. FIG. 13A-13C show growth of cancer cell lines in the four media conditions subjected to increasing doses of pitolisant. FIG. 14A-14G show growth of cancer cell lines in the four media conditions subjected to increasing doses of avapritinib. FIG. 15A-15D show growth of cancer cell lines in the four media conditions subjected to increasing doses of toremifene. FIG. 16A-16C show growth of cancer cell lines in the four media conditions subjected to increasing doses of isavuconazole.

The test system of the next assay is PSN1 cells. In words: Drug validation, four media conditions. Format: cell-based, human. The conditions noted are these: for anti-proliferative effect (dose-response curve shift): cholesterol-free medium+simvastatin compared to the other media conditions. As to the method: as §1, §2, §3, §4
Assay [3] relates to H292 cells. Nature of the assay: Drug validation, four media conditions. The note with it: cholesterol-free medium+simvastatin compared to the other media conditions. It is filed as cell-based, human. As to the method: as §1, §2, §3, §4
The test system of assay [4] is H292 cells. Nature of the assay: Drug validation in H292 cells, three media conditions. It is filed as cell-based, human. The conditions noted are these: cholesterol-free medium + simvastatin 40 nM vs complete and cholesterol-free medium. As to the method:
as §1
On Day 1, cells were seeded at a density of around 7500 cells/well in a Corning 96-well flat bottom culture plate in complete media containing 10% FBS.
On Day 5, spent media was discarded, and wells were stained with a crystal violet staining solution, washed and dried. 100 μL of 10% acetic acid was added to each well to release the crystal violet taken up by the cells. Plates were read using a Biotek Powerwave plate reader to determine the absorbance of the crystal violet released as an indicator of cell growth at a wavelength of 595 nm.
Growth curves showing absorbance of crystal violet at 595 nm were plotted from test wells against the logarithmic concentration of the validation drug. FIG. 7A-7C show growth of cancer cell lines in the three media conditions subjected to increasing doses of isavuconazole (FIG. 7A), pitolisant (FIG. 7B), or toremifene (FIG. 7C) from the FDA screen under validation. For each of the drugs being validated, there is a strong ‘left-shift’ in the dose response curve for cells are grown in the cholesterol-free medium+simvastatin.

In the next assay the test system is cancer cell lines. Nature of the assay: Drug validation in multiple cancer cell lines, four media conditions. It is filed as cell-based, human. As to the method:
as §1
[…]. Medium 1 was ‘complete medium’ containing all essential nutrients, including cholesterol. Medium 2 was cholesterol-free medium. Medium 3 was cholesterol-free medium supplemented with simvastatin 40 nM. […]
as §3, with “and dried. […] Plates were” for “and dried. 100 μL of 10% acetic acid was added to each well to release the crystal violet taken up by the cells. Plates were”, “590 nm. […]” for “590 nm.”

The test system of the next assay is PATU8901 cells. Nature of the assay: Drug validation, four media conditions. The note with it: cholesterol-free media with simvastatin. Format: cell-based, human. As to the method: as §1, §2, §3, §4
The next assay relates to SW480 cells. Nature of the assay: Drug validation, four media conditions. Format: cell-based, human. As to the method:
as §1, §2, §3, §4

The next assay concerns HCC827 cells. Nature of the assay: Drug validation, four media conditions. It is filed as cell-based, human. The conditions noted are these: cholesterol-free and cholesterol-free+simvastatin media conditions. As to the method:
as §1, §2, §3, §4

Assay [5] relates to NCI-H292 mucoepidermoid lung cancer tumour. Nature of the assay: Anti-tumour activity with low cholesterol diet in NCI-H292 tumour bearing mice. It is filed as in vivo, BALB/c nude mice. The note with it: Low Chol Diet + atorvastatin 30 mg/kg daily oral gavage vs Low Chol Diet + vehicle. An excerpt:
(§5) A series of in vivo experiments were designed to assess the effect of cholesterol depletion on cancer cell growth. The added role of statin treatment and additional therapeutic agents was studied by dosing mice and assessing tumor growth over a defined time period.
Immunodeficient BALB/c nude mice were subcutaneously injected with human mucoepidermoid lung cancer NCI-H292 cells to initiate tumor development and randomly assigned into one of three experimental groups (n=6 per group): normal cholesterol diet “Normal Chol Diet” containing 0.2% dietary cholesterol without atorvastatin; low cholesterol diet “Low Chol Diet” containing less than 0.05% dietary cholesterol without atorvastatin; or Low Chol Diet treated with atorvastatin at 30 mg/kg by oral gavage. Once the tumor volume reached ˜150 mm^3, experimental diets were commenced. Atorvastatin or vehicle treatment was initiated four days after the diet change and continued daily until the tumor volume exceeded 2000 mm^3 or the time end-point of three weeks after diet commencement was reached. Throughout the course of the study, tumor volume was measured twice per week.

The test system of a further assay is SW480 colorectal tumour. Nature of the assay: Anti-tumour activity with low cholesterol diet in SW480 tumour bearing mice. Format: in vivo, M-NSG mice.
Excerpt: as §5
Immunodeficient M-NSG (NOD-Prkdc^scid Il2rgem1Smoc) mice were subcutaneously injected with human colorectal cancer SW480 cells and matrigel to initiate tumor development and randomly assigned into one of four experimental groups (n=6 per group): normal cholesterol diet “Normal Chol Diet” containing 0.2% dietary cholesterol and vehicle, low cholesterol diet “Low Chol Diet” containing less than 0.05% dietary cholesterol and vehicle, Low Chol Diet treated with atorvastatin at 15 mg/kg, or Low Chol Diet treated with toremifene at 2 mg/kg. Once the tumor volume reached ˜150 mm^3, experimental diets were commenced. Atorvastatin, vehicle, or toremifene treatment by oral gavage was initiated four days after the diet change and continued daily until the tumor volume exceeded 2000 mm^3 or the time end-point of three weeks after treatment initiation was reached. Throughout the course of the study, tumor volume was measured twice per week.

Another assay deals with PC9 lung cancer tumors. In words: Anti-tumour activity with low cholesterol diet in PC9 bearing mice. It is filed as in vivo, C.B-17 SCID mice. The note with it: Low Chol Diet + toremifene 2 mg/kg with simvastatin 10 mg/kg, daily oral gavage, compared to simvastatin 20 mg/kg.
Excerpt: as §5
Immunodeficient C.B-17 SCID (C.B-Igh-1^b/IcrTac-Prkdc^scid) mice were subcutaneously injected with human lung cancer PC9 cells to initiate tumor development and randomly assigned into one of three experimental groups (n=6 per group): “Low Chol Diet” containing less than 0.05% dietary cholesterol and vehicle, Low Chol Diet and simvastatin 20 mg/kg, and Low Chol Diet and simvastatin 10 mg/kg in combination with toremifene 2 mg/kg. Once the tumor volume reached ˜200 mm^3, treatment was commenced with vehicle, simvastatin, and toremifene administered daily by oral gavage. Treatment continued for 28 days or until the tumor volume exceeded 2000 mm^3. Throughout the course of the study, tumor volume was measured twice per week.

[6] abbreviates: cholesterol-free and cholesterol-free+simvastatin media conditions.

Take `C[C@@H](c1nc(-c2ccc(C#N)cc2)cs1)[C@](O)(Cn1cncn1)c1cc(F)ccc1F` [isavuconazole, reference compound]: in assay [1], the “Cholesterol-free media + simvastatin (0.04 μM)” value was 0.5246, the “Complete Media” value is 0.9256 and the Difference was determined as 0.40. In addition, the Difference in assay [2] (Complete minus Cholesterol-free, greater than 0 enhanced anti-cancer activity, below 0 antagonists) is on record as −0.83. In assay [2] (NCI-H292 cells in cholesterol-free media without statin), the Cholesterol-free was 1.746. In assay [2] (NCI-H292 cells in complete media), this compound registered a Complete of 0.9126. In the assay on PC9 cells, the “anti-proliferative effect (dose-response curve shift)” value is “strong left-shift”. The “basal viability of treated cells” value in the assay with PSN1 cells (cholesterol-free medium+simvastatin relative to the other three media conditions) was “decreased basal viability”. Moreover, the “anti-proliferative effect (dose-response curve shift)” value with H292 cells [3] is on record as “strong left-shift”. The “anti-proliferative effect of the drug (dose response curve shift)” value in the assay on H292 cells [4] is “strongly enhanced”.

For `Cn1cc(-c2cc3c(N4CCN(c5ncc([C@@](C)(N)c6ccc(F)cc6)cn5)CC4)ncnn3c2)cn1` [avapritinib, reference compound], the “Cholesterol-free media + simvastatin (0.04 μM)” value in [1] is on record as 0.4436. Further, in [1], the “Complete Media” value was 0.749. Further, the Difference is recorded as 0.31 in assay [1] and −0.33 in assay [2] (complete vs cholesterol-free media, greater than 0 enhanced anti-cancer activity, below 0 antagonists). Besides, the “anti-proliferative effect (dose-response curve shift) with lack of cholesterol” value in the assay on cancer cell lines (cholesterol-free media compared to complete media) is listed as “enhanced”. In assay [2] (NCI-H292 cells, cholesterol-free media without statin), this compound yielded a Cholesterol-free of 0.9337. The compound also displayed a Complete in assay [2] (NCI-H292 cells, complete media) of 0.6002. The “anti-proliferative effect (dose-response curve shift)” value in the assay with PSN1 cells, with H292 cells [3] and in the assay with PATU8901 cells was “strong left-shift” in each case.

For `Clc1ccc(CCCOCCCN2CCCCC2)cc1` [pitolisant], the “activity (dose-response curve shift) with lack of cholesterol” value in the assay on SW480 cells (setting [6]), in the assay on HCC827 cells and in the assay on PSN1 cells (setting [6]) was “enhanced” in each case. In the assay on H292 cells [4], the “anti-proliferative effect of the drug (dose response curve shift)” value was “strongly enhanced”.

For `CC(C)c1c(C(=O)Nc2ccccc2)c(-c2ccccc2)c(-c2ccc(F)cc2)n1CC[C@@H](O)C[C@@H](O)CC(=O)O` [atorvastatin, reference compound], the tumor growth suppression entry in assay [5] is “enhanced the tumor growth suppression”. For the same compound, the tumor growth suppression result in the assay on SW480 colorectal tumour (Low Chol Diet + atorvastatin 15 mg/kg daily oral gavage vs Low Chol Diet + vehicle) was “enhanced”. Moreover, in assay [1] (listed as Atorvastatin), the “Cholesterol-free media + simvastatin (0.04 μM)” value turned out to be 0.6169, the “Complete Media” value was determined as 0.8658 and the Difference came to 0.25. In addition, the Difference in assay [2] (Complete minus Cholesterol-free, >0 enhanced anti-cancer activity, <0 antagonist) is 0.03. For the same compound, the Cholesterol-free in assay [2] (NCI-H292 cells, cholesterol-free media without statin, FDA drug library screen) came out at 0.8356. For the same compound, in assay [2] (NCI-H292 cells, complete media, FDA drug library screen), the Complete is on record as 0.8623.

Turning to `CN(C)CCOc1ccc(/C(=C(/CCCl)c2ccccc2)c2ccccc2)cc1` [toremifene], the tumor growth suppression result in the assay on PC9 lung cancer tumors is on record as “enhanced the tumor growth suppression”; in the assay with SW480 colorectal tumour (Low Chol Diet + toremifene 2 mg/kg daily oral gavage vs Low Chol Diet + vehicle) it was “enhanced”. Further, the “tumor growth suppression, rank among the four conditions” value in the assay with SW480 colorectal tumour (Low Chol Diet + toremifene 2 mg/kg) is “highest”. Moreover, the “anti-proliferative activity (dose-response curve shift)” value with cancer cell lines (cholesterol-free+simvastatin medium compared to the other three media conditions) is given as “strong left-shift”. In addition, the “anti-proliferative effect of the drug (dose response curve shift)” value in the assay on H292 cells [4] is listed as “strongly enhanced”.

With `CCN(CCCc1ccccc1)CCCc1ccccc1` [alverine citrate], the “anti-proliferative effect (dose-response curve shift)” value with SW480 cells (cholesterol-free medium+simvastatin compared to the other media conditions) and in the assay on H292 cells [3] was “enhanced” each time.

For the compound `CCCCCOc1ccccc1/C(=C\SC)n1ccnc1` [neticonazole, reference compound], the “Complete Media” value in [1] (listed as Neticonazole) was 1.262. In addition, the Difference in assay [1] (listed as Neticonazole) is listed as 0.90; in assay [2] (Complete minus Cholesterol-free, greater than 0 enhanced anti-cancer activity, below 0 antagonist), −0.16. For the same compound, in [2] (NCI-H292 cells, FDA drug library screen, cholesterol-free media without statin), the Cholesterol-free is recorded as 0.9493. In assay [2] (NCI-H292 cells, FDA drug library screen, complete media), this compound returned a Complete of 0.7904. In addition, the “anti-proliferative effect (dose-response curve shift)” value in the assay on PC9 cells, in the assay on PSN1 cells and with H292 cells [3] was “strongly enhanced” each time.
